Reference: article PMC4963475, “Two functionally distinct kinetochore pools of BubR1 ensure accurate chromosome segregation” (Nature Communications, 2016)
Non-standard residues stand in square brackets, D forms with d. Residues, ends and D or L forms follow the SMILES beside them. pT = C[C@@H](OP(=O)(O)O)[C@H](N)C(=O)O; Nle = CCCC[C@H](N)C(=O)O

Columns and labels:
BubR1/Bub3 = molecular target: T1, BubR1/Bub3 (Homo sapiens, UniProt O43684+O60566); assay: MicroScale Thermophoresis (MST) affinity of MELT peptides for BubR1/Bub3; type: binding; details: for Binding of BubR1/Bub3 to phosphorylated MELT peptide, in words: 50 mM NaCl
T1 construct: made in house; host or cells: HEK293 cells (transient co-transfection)
Method: To determine the affinity of the complexes to MELTp repeats, we used MicroScale Thermophoresis (MST). Purified BubR1/Bub3 and Bub1(1–553)/Bub3 complexes were fluorescently labelled with maleimide chemistry for these measurements and tested for their ability to bind phosphorylated MELT12, MELT16 and MELT18 peptides (Fig. 2e–g; Supplementary Fig. 2). […] We conducted the affinity measurements at 50 mM NaCl as this produced the best quality data for the Bub1(1–553)/Bub3 complex.
MST experiments were performed on a NanoTemper Monolith NT.115 instrument with blue/red channels. Both complexes, BubR1/Bub3 and Bub1(1–553)/Bub3, were labelled using the Monolith NT Protein Labeling kit RED-MALEIMIDE (NanoTemper Technologies GmbH) according to the supplied protocol. The labelling efficiency was ∼90% and 75%, respectively, and it was estimated by independent measurements of the protein concentration combining spectroscopic measurements and a NT-647 red dye calibration curve in the corresponding MST interaction buffer. Samples were prepared in MST buffer (50 mM HEPES (pH 7.8), 200 mM NaCl, 0.5 mM TCEP, 0.05% Tween 20 or 50 mM Tris (pH 7.8), 50 mM NaCl, 0.5 mM TCEP and 0.05% Tween 20), loaded into premium coated capillaries and measurements were performed at 40% MST power. Laser off/on times were 5 and 30 s, respectively. The fluorescently labelled BubR1/Bub3 and Bub1(1–553)/Bub3 were used at concentrations of 25 and 12.5 nM, respectively, at 40% light-emitting diode power for all peptides except for the double-phosphorylated MELT12 peptide in MST buffer 50 mM Tris (pH 7.8), 50 mM NaCl, 0.5 mM TCEP and 0.05% Tween 20 that were performed at 4 nM concentration of the labelled proteins and 80% light-emitting diode power. […] The fraction of bound protein was derived from the averaged (1 s averaged) normalized fluorescence signals at t=8 s of the labelled complexes at different ligand concentrations. […] The number of independent repeats was three for all measurements and error bars show the s.d. between these independent repeats.

Bub1(1–553)/Bub3 = molecular target: T2, Bub1(1–553)/Bub3 (Homo sapiens, UniProt O43683+O43684); assay: MicroScale Thermophoresis (MST) affinity of MELT peptides for Bub1(1–553)/Bub3; type: binding; details: for Binding of Bub1(1–553)/Bub3 to phosphorylated MELT peptide, in words: 50 mM NaCl
T2 construct: 15 μg 3 × FLAG–Bub1(1–553)-expressing plasmid; made in house; host or cells: HEK293 cells (transient co-transfection)
Text: We next wanted to quantitatively compare the ability of BubR1/Bub3 and Bub1/Bub3 to bind MELTp repeats. For this, we purified a FLAG–Bub1(1–553)/Bub3 complex in parallel with FLAG–BubR1/Bub3 (we could not obtain sufficient yields of the full-length Bub1/Bub3 complex, but have recently shown that Bub1 1–553 fully supports SAC signalling[29]). To determine the affinity of the complexes to MELTp repeats, we used MicroScale Thermophoresis (MST). Purified BubR1/Bub3 and Bub1(1–553)/Bub3 complexes were fluorescently labelled with maleimide chemistry for these measurements and tested for their ability to bind phosphorylated MELT12, MELT16 and MELT18 peptides (Fig. 2e–g; Supplementary Fig. 2). The binding of BubR1/Bub3 to MELT12 was strongly dependent on phosphorylation and the measured affinity was sensitive to the salt concentration in the buffer as expected for an interaction depending on electrostatic interactions with the phosphorylated threonine[26] (Fig. 2e–g; Supplementary Fig. 2C). We conducted the affinity measurements at 50 mM NaCl as this produced the best quality data for the Bub1(1–553)/Bub3 complex.
Ten 15-cm dishes were each seeded with 6 × 10^6 HEK293 cells and the next day each transfected with 15 μg 3 × FLAG–BubR1 or 15 μg 3 × FLAG–Bub1(1–553)-expressing plasmid and 15 μg untagged Bub3-expressing plasmid using lipofectamine 2000 (Invitrogen). Forty-eight hours after transfection, the cells were collected by trypsination and cells washed in cold PBS with 1 mM phenylmethyl sulphonyl fluoride. The cells were resuspended in 5 ml buffer A (350 mM NaCl, 50 mM Tris·HCl (pH 8.0), 0.05% NP-40 and protease inhibitor cocktail (Roche)) and lysed using a nitrogen cavitation bomb. Lysate was clarified by centrifugation and then incubated with 300 μl FLAG-affinity resin (Sigma-Aldrich) for 90 min at 4 °C. The FLAG resin was washed with 20 ml buffer A and proteins eluted with three times 300 μl buffer A containing […] 3 × FLAG peptide (Sigma). The eluates were pooled and concentrated to 500 μl and loaded on a Superdex 200 10/300 GL column equilibrated with buffer B (150 mM NaCl, 25 mM HEPES·KOH (pH 7.8), 5% glycerol and 0.5 mM TCEP) and peak fractions eluting at ∼500 kDa pooled and concentrated using a vivaspin-4 concentration device. Proteins were stored at −80 °C.
MST experiments were performed on a NanoTemper Monolith NT.115 instrument with blue/red channels. […] The fluorescently labelled protein complexes were mixed with equivalent volumes (10 μl) of a twofold serial dilution of the different peptides starting at concentrations between 10 and 20 times the calculated KD. The fraction of bound protein was derived from the averaged (1 s averaged) normalized fluorescence signals at t=8 s of the labelled complexes at different ligand concentrations. […]

HeLa cells = details: Bub1 RNAi 48 h, nocodazole 2 h, reversine 0.5 μM, 25–35% without reversine
Method: (a) Outline of the synchronization protocol used in this study. Left, RNAi and rescue protocol; right, Bub1 CRISPR/Cas9 knockout protocol. (b) HeLa cells were treated with a control RNAi oligo (luciferase) or an RNAi oligo targeting Bub1 for 48 h and arrested in mitosis using nocodazole for 2 h. Cells were fixed and stained with 4,6-diamidino-2-phenylindole (DAPI), CREST (centromere marker) and Bub1 antibodies. (c,e,g,i) The kinetochore levels of Bub1, BubR1 and KNL1 were determined in the indicated conditions and normalized to CREST. An unpaired t-test was used for statistical comparison of the different samples in e. […] (f) HeLa cells were transfected with Cas9 protein with guide RNA against Bub1 gene for 96 h and treated with nocodazole for 2 h. […] At least 160 individual kinetochores from eight cells were measured in each condition. […]
Cells growing on coverslips were washed once with PBS and fixed with 4% paraformaldehyde in PHEM buffer (60 mM PIPES, 25 mM HEPES, pH 6.9, 10 mM EGTA and 4 mM MgSO4) for 20 min at room temperature. […] Z-stacks 200 nm apart was recorded on a Deltavision Elite microscope (GE Healthcare), using a × 100 oil objective followed by deconvolution using Softworx before quantification. Protein intensity on kinetochores was quantified by drawing a circle closely along the rod-like CREST staining covering the interested outer kinetochore protein staining on both ends. […]

T2 sequence (O43683 1-553 limits assumed): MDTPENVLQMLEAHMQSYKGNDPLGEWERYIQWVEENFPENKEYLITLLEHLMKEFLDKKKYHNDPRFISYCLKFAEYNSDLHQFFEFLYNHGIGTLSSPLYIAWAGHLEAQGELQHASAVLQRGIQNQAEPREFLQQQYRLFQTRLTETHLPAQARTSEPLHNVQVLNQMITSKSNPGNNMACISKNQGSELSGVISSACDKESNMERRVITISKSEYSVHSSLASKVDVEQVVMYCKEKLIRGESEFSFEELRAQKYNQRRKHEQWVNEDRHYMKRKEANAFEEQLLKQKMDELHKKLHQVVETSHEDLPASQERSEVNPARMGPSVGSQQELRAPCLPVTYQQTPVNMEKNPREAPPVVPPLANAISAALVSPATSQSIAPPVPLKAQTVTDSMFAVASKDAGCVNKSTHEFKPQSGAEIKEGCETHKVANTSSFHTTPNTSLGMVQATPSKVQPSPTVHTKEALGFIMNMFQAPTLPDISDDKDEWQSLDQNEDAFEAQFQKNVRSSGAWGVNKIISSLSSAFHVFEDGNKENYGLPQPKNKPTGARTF
T2 sequence (O43684 whole entry): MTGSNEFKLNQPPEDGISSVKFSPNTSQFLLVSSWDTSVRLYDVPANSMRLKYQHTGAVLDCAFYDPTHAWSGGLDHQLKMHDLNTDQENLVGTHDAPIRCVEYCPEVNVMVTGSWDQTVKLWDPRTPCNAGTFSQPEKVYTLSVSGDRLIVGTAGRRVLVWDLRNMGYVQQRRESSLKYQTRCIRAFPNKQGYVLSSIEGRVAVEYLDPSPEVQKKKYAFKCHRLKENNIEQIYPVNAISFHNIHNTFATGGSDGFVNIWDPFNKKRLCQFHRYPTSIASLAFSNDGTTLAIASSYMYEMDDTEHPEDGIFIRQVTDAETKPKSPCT
T1 sequence (O60566 whole entry): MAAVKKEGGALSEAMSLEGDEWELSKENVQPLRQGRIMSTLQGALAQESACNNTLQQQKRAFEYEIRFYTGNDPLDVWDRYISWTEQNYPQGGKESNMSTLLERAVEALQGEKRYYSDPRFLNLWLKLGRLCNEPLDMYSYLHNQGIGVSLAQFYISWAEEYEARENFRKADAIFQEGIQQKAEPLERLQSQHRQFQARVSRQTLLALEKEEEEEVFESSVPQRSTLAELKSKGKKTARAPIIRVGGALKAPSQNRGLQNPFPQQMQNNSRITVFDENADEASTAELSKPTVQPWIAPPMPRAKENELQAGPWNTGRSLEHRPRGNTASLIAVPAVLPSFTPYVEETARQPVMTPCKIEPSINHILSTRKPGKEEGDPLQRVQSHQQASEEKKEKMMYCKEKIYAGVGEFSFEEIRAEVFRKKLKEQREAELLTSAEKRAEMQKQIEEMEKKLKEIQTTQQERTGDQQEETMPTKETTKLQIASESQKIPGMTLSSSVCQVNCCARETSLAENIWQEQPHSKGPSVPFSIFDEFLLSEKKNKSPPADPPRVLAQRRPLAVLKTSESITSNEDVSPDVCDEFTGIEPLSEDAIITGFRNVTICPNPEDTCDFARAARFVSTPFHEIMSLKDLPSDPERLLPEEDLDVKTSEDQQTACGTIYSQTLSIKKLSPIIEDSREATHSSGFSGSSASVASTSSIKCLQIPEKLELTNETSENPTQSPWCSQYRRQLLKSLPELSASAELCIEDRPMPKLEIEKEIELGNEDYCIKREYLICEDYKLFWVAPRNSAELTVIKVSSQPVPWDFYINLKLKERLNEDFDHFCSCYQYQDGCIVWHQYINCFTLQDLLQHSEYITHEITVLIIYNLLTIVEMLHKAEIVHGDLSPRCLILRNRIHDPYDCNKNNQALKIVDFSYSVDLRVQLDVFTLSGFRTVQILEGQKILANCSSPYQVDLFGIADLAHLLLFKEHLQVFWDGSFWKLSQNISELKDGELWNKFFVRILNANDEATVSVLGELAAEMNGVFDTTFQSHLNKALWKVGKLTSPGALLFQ
T1 sequence (O43684 whole entry): as the sequence (O43684 whole entry) above

Binding of BubR1/Bub3 to phosphorylated MELT peptide, in words (BubR1/Bub3) | Binding of Bub1(1–553)/Bub3 to phosphorylated MELT peptide, in words (Bub1(1–553)/Bub3) | BubR1/Bub3 KD (BubR1/Bub3; 50 mM Tris pH 7.8, 50 mM NaCl, 0.5 mM TCEP, 0.05% Tween 20, labelled BubR1/Bub3 25 nM (4 nM for double-phosphorylated MELT12), three independent repeats) | Bub1(1–553)/Bub3 KD (Bub1(1–553)/Bub3; 50 mM Tris pH 7.8, 50 mM NaCl, 0.5 mM TCEP, 0.05% Tween 20, labelled Bub1(1–553)/Bub3 12.5 nM (4 nM for double-phosphorylated MELT12), three independent repeats) | Compound | BubR1 kinetochore levels remaining (normalized to CREST) (HeLa cells)
no binding was detected | no binding was detected | No binding | No binding | TDNYSDLEV-Tp-DSHTVFID-amide [MELT18p, single-phosphorylated MELT18 peptide from KNL1] | –
bound | bound | – | – | CCCC[C@H](NC(=O)[C@H](CC(=O)O)NC(=O)[C@H](CC(N)=O)NC(=O)[C@H](CCCCN)NC(=O)[C@H](Cc1c[nH]cn1)NC(=O)[C@H](CC(N)=O)NC(=O)[C@@H](N)CCC(=O)O)C(=O)N[C@@H](CC(=O)O)C(=O)N[C@H](C(=O)N[C@H](C(=O)N[C@@H](CCC(N)=O)C(=O)N[C@@H](CO)C(=O)N[C@@H](CS)C(=O)N[C@@H](CCCC)C(=O)N[C@H](C(=O)N[C@@H](CCC(=O)O)C(=O)N[C@H](C(=O)N[C@@H](CC(=O)O)C(=O)N[C@@H](Cc1ccc(O)cc1)C(N)=O)[C@@H](C)CC)C(C)C)[C@@H](C)OP(=O)(O)O)[C@@H](C)CC [MELT16p] (H-ENHKND[Nle]DI[pT]QSC[Nle]VEIDY-NH2; N-terminus assumed) | –
– | – | – | – | c1nc2nc(Nc3ccc(N4CCOCC4)cc3)nc(NC3CCCCC3)c2[nH]1 [reversine] | ~10%

Compound | Binding of BubR1/Bub3 to phosphorylated MELT peptide, in words (BubR1/Bub3) | Binding of Bub1(1–553)/Bub3 to phosphorylated MELT peptide, in words (Bub1(1–553)/Bub3) | BubR1/Bub3 KD (BubR1/Bub3; 50 mM Tris pH 7.8, 50 mM NaCl, 0.5 mM TCEP, 0.05% Tween 20, labelled BubR1/Bub3 25 nM (4 nM for double-phosphorylated MELT12), three independent repeats) | Bub1(1–553)/Bub3 KD (Bub1(1–553)/Bub3; 50 mM Tris pH 7.8, 50 mM NaCl, 0.5 mM TCEP, 0.05% Tween 20, labelled Bub1(1–553)/Bub3 12.5 nM (4 nM for double-phosphorylated MELT12), three independent repeats) | BubR1 kinetochore levels remaining (normalized to CREST) (HeLa cells)
CCCC[C@H](NC(=O)[C@H](CC(=O)O)NC(=O)[C@H](CC(N)=O)NC(=O)[C@H](CCCCN)NC(=O)[C@H](CC(=O)O)NC(=O)[C@H](CC(=O)O)NC(=O)[C@H](CCC(=O)O)NC(=O)COCCOCCNC(=O)[C@H](CS)NC(=O)COCCOCCNC(=O)CCCC[C@@H]1SC[C@@H]2NC(=O)N[C@@H]21)C(=O)N[C@@H](CC(=O)O)C(=O)N[C@H](C(=O)N[C@H](C(=O)N[C@@H](CCCCN)C(=O)N[C@@H](CO)C(=O)N[C@@H](Cc1ccc(O)cc1)C(=O)N[C@H](C(=O)N[C@H](C(=O)N[C@@H](CCC(=O)O)C(=O)N[C@H](C(=O)N[C@@H](CC(N)=O)C(N)=O)[C@@H](C)CC)[C@@H](C)CC)[C@@H](C)O)[C@@H](C)OP(=O)(O)O)[C@@H](C)CC [MELT12p] | bound | bound | – | – | –
